# Test: MRI measurements of relaxation rates and relaxivities
# Type: physicochemical
# Conditions: for r1: relaxivity, MRI measurement
# Source text: MRI measurements: See Engström et al., Magn Reson Mater Phy, 19 (2006) 180-186.
# Commercially available and clinically used Gd^3+-DPTA has under the same conditions lower values for 1/T1 and 1/T2 (e.g. 1/T1=0.005 ms^−1). Variations in relaxivities (r1 and r2) and in the relaxivity ratio (r2/r1) are illustrated by: […]
compound,measurement,setting,value
[Cl][Gd]([Cl])[Cl] [Gd^3+ (GDCl3)],r1,,10.5 mM⁻¹ s⁻¹
O=C([O-])CN(CCN(CC(=O)[O-])CC(=O)O)CCN(CC(=O)[O-])CC(=O)O.[Gd+3] [Gd^3+-DTPA],1/T1 (1 mM),relaxation rate at 1 mM Gd,0.005 ms^−1
same,1/T2,"relaxation rate, result in words",lower
same,r1,,4.1 mM⁻¹ s⁻¹
